Measured values: US6211244A, “Calcium receptor-active compounds” (priority 1995, dated 2001)

Target: T1, human calcium receptor (Homo sapiens, UniProt P41180, R990G)
T1 construct: expressed in transfected cells; host or cells: HEK 293
T1 sequence (P41180 20-1078 R990G): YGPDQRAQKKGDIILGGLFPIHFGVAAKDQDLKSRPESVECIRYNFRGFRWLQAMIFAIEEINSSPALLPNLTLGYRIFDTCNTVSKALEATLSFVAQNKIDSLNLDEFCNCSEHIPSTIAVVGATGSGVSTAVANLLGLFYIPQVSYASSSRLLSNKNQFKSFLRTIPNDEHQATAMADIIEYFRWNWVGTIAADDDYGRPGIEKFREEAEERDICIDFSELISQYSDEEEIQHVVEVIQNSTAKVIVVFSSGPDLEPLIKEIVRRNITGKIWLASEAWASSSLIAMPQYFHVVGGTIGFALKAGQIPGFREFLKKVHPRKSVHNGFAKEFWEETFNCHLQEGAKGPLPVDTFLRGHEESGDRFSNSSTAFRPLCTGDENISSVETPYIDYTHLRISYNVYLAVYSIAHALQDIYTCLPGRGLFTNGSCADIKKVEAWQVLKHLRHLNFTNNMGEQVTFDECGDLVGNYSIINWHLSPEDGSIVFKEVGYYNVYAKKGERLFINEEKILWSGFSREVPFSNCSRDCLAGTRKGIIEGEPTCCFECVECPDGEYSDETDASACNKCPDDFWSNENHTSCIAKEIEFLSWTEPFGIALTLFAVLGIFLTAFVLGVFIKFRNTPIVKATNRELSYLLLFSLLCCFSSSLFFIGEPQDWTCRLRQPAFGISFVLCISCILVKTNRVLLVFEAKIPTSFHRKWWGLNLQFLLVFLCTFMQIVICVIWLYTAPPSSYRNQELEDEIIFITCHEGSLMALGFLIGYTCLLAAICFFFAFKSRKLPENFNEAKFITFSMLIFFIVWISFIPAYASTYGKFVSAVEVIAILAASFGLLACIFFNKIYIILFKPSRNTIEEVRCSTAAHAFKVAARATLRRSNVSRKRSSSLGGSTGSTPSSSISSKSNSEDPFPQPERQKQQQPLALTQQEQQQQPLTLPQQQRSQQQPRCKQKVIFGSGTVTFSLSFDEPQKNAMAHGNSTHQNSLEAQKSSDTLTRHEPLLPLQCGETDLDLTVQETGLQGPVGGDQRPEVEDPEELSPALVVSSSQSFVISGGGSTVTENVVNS
Experiment: increases in [Ca^2+ ]i in HEK-293 cells expressing the human calcium receptor (fura-2 loaded HEK 293/pHuPCaR4.0 cells), % activity
Type: cell-based

Row | Compound | % activity (33 ng/mL) | % activity (330 ng/mL) | % activity (3300 ng/mL) | % activity (330 ng/mL, listed as 4U)
1 | C[C@@H](N[C@H](C)c1cccc2ccccc12)c1ccccc1 [Compound 14O] | 102% | 119% | 119% | 
2 | CC(NC(C)c1cccc2ccccc12)c1ccccc1 (centres unmarked) [Compound 14P] | 78% | 103% | 112% | 
3 | C[C@@H](N[C@H](C)c1cccc2ccccc12)c1cccc(Cl)c1 [Compound 14Q] | 78% | 101% |  | 
4 | CC(NC(C)c1cccc2ccccc12)c1ccc(Cl)cc1 (centres unmarked) [Compound 14S] | 105% | 106% | 116% | 
5 | COc1cccc(C(C)NC(C)c2cccc3ccccc23)c1 (centres unmarked) [Compound 14Z] | 82% | 103% | 118% | 
6 | COc1cccc(CCNC(C)c2cccc3ccccc23)c1 (centres unmarked) [Compound 15I] | 75% | 93% | 111% | 
7 | COc1ccc(CCNC(C)c2cccc3ccccc23)cc1 (centres unmarked) [Compound 15J] | 64% | 75% | 80% | 
8 | COc1ccccc1CCCN[C@H](C)c1cccc2ccccc12 [Compound 16I] | 96% | 117% | 121% | 
9 | COc1ccc(C(C)NC(C)c2cccc3ccccc23)cc1 (centres unmarked) [Compound 16J] | 47% | 76% | 92% | 
10 | COc1ccc([C@@H](C)N[C@H](C)c2cccc(OC)c2)cc1 [Compound 16L, (R,R)-N-[1-(4-methoxyphenyl)ethyl]-1-(3-methoxyphenyl)ethylamine] | 98% | 138% | 146% | 
11 | COc1ccc([C@@H](C)N[C@@H](C)c2cccc(OC)c2)cc1 [Compound 16M, (S,R)-N-[1-(4-methoxyphenyl)ethyl]-1-(3-methoxyphenyl)ethylamine] | 11% | 68% | 130% | 
12 | COc1cccc(C(C)NC(C)c2cccc(OC)c2)c1 (centres unmarked) [Compound 16N] | 82% | 159% | 122% | 
13 | COc1cccc(C(C)NC(C)c2cccc(OC)c2)c1 (centres unmarked) [Compound 16O] | 21% | 81% | 129% | 
14 | C[C@@H](NCc1ccc2c(c1)OCO2)c1cccc2ccccc12 [Compound 16R] | 76% | 100% |  | 
15 | COc1cc(C)c(CN[C@H](C)c2cccc3ccccc23)cc1C [Compound 16U] | 50% | 85% |  | 
16 | CCOc1ccc(CN[C@H](C)c2cccc3ccccc23)cc1 [Compound 16W] | 73% | 102% |  | 
17 | C[C@@H](NCc1ccc(C#N)cc1)c1cccc2ccccc12 [Compound 16Z] | 51% | 88% |  | 
18 | CC(=O)c1ccc(CN[C@H](C)c2cccc3ccccc23)cc1 [Compound 17C] | 99% | 120% | 113% | 
19 | C[C@@H](NCc1ccc(Br)cc1)c1cccc2ccccc12 [Compound 17D] | 91% | 108% |  | 
20 | C[C@@H](NCc1ccc(I)cc1)c1cccc2ccccc12 [Compound 17E] | 110% | 110% | 116% | 
21 | C[C@@H](NCc1ccc(C(F)(F)F)cc1)c1cccc2ccccc12 [Compound 17F] | 90% | 111% |  | 
22 | COc1ccc(C(N[C@H](C)c2cccc3ccccc23)C2CC2)cc1 (some centres unmarked) [Compound 17H] | 111% | 124% | 126% | 
23 | CC(NC(C)c1cccc2ccccc12)c1ccc(Cl)c(Cl)c1 (centres unmarked) [Compound 17J] | 122% | 118% | 116% | 
24 | CC(NC(C)c1cccc2ccccc12)c1ccc(Cl)c(Cl)c1 (centres unmarked) [Compound 17K] | 73% | 97% | 98% | 
25 | COc1ccc(CN[C@H](C)c2cccc3ccccc23)c(C)c1C [Compound 17L] | 78% | 104% | 111% | 

Row | Compound | % activity (33 ng/mL) | % activity (330 ng/mL) | % activity (3300 ng/mL) | % activity (330 ng/mL, listed as 4U)
26 | COc1ccc(CN[C@H](C)c2cccc3ccccc23)cc1Cl.Cl [Compound 17M, N-(3-chloro-4-methoxybenzyl)-(R)-1-(1-naphthyl) ethylamine hydrochloride] | 99% | 115% |  | 
27 | Cc1ccc([C@@H](C)N[C@H](C)c2cccc3ccccc23)cc1C [Compound 17N] | 86% | 108% |  | 
28 | COc1cccc([C@@H](C)NCCCc2ccccc2I)c1 [Compound 17R] | 65% | 98% |  | 
29 | COc1ccc(CNCc2ccccc2OC)cc1C [Compound 17V] | 27% | 66% | 91% | 
30 | Cc1cc(C(C)NC(C)c2cccc3ccccc23)ccc1O (centres unmarked) [Compound 17W] | 67% | 92% |  | 
31 | COc1ccc(CNCc2cccc3ccccc23)cc1C [Compound 17Y] | 79% | 94% | 109% | 
32 | COc1ccc(CNC(C)c2cccc3ccccc23)cc1C (centres unmarked) [Compound 17Z] | 73% | 99% |  | 
33 | COc1ccc(CNC(C)c2ccc(F)c3ccccc23)cc1C (centres unmarked) [Compound 18A] | 88% | 111% |  | 
34 | COc1ccc(CNC(C)c2c(OC)ccc3ccccc23)cc1C (centres unmarked) [Compound 18B] | 69% | 96% | 111% | 
35 | COc1ccc(CNC(C)c2ccc(OC)c3ccccc23)cc1C (centres unmarked) [Compound 18C] | 60% | 87% | 99% | 
36 | COc1ccc(CNC(C)c2cccc(-c3ccccc3)c2)cc1C (centres unmarked) [Compound 18T] | 52% | 74% | 99% | 
37 | C[C@@H](NCCCc1ccccc1Cl)c1cccc(OCC(F)(F)F)c1 [Compound 20Y] | 74% | 95% | 117% | 
38 | COc1cccc([C@@H](C)NC(C)CCc2ccccc2Cl)c1 (some centres unmarked) [Compound 21C = 4U] |  |  |  | 72%
39 | COc1cccc([C@@H](C)N[C@@H](C)CCc2ccccc2)c1 [Compound 21E, (S,R)-N-(4-pbenyl-2-butyl)-1-(3-methoxyphenyl)ethylamine] | 64% | 94% |  | 
40 | COc1cccc([C@@H](C)NCCCc2cccc(OC(F)(F)F)c2)c1 [Compound 21M] | 58% | 102% |  | 
41 | COc1cccc([C@@H](C)NCCCc2ccc(OC(F)(F)F)cc2)c1 [Compound 21N] | 42% | 98% | 124% | 
42 | COc1cccc([C@@H](C)NCCCc2ccccc2C(F)(F)F)c1 [Compound 21O] | 75% | 109% |  | 
43 | COc1cccc([C@@H](C)NCCCc2cccc(C(F)(F)F)c2)c1 [Compound 21P] | 56% | 92% |  | 
44 | COc1cccc([C@@H](C)NCCCc2ccccc2F)c1 [Compound 21R] | 66% | 100% |  | 
45 | CCCOc1cccc([C@@H](C)NCCCc2ccccc2Cl)c1 [Compound 21S] | 85% | 131% | 132% | 
46 | CC(C)Oc1cccc([C@@H](C)NCCCc2ccccc2Cl)c1 [Compound 21T] | 53% | 112% | 133% | 
47 | C[C@@H](NCCCc1ccccc1Cl)c1cccc(OCC(F)F)c1 [Compound 21V] | 99% | 116% | 122% | 
48 | COc1cccc([C@@H](C)N[C@@H](C)CCc2cccc(C(F)(F)F)c2)c1 [Compound 21X] | 51% | 101% | 119% | 
49 | COc1cccc([C@@H](C)N[C@H](C)CCc2cccc(C(F)(F)F)c2)c1 [Compound 21Y, (R,R)-N-[4-(3-trifluoromethylphenyl)-2-butyl]-1-(3-methoxyphenyl)ethylamine] | 68% | 100% |  | 
50 | C[C@@H](NCCCc1cccc(C(F)(F)F)c1)c1cccc2ccccc12 [Compound 22J] | 71% | 99% |  | 
